{"source": "patent US6465636B1", "about": "“Pathogen-inducible promoter” (Zeneca Mogen B.V., priority 1998, dated 2002)", "tested_on": "ms59 messenger", "experiment": "Induction of ms59 messengers in sunflower leaves, transcript levels by competitive RT-PCR", "assay_type": "in vivo, Helianthus annuus cv Zebulon", "conditions": "Helianthus annuus, read-out: fold induction of the ms59 messenger relative to the control", "protocol": "Leaves of 7 to 8 weeks old Sunflower plants (Helianthus annuus cv Zebulon) were induced by spraying 5 times with 5 mM salicylic acid (SA), spraying once with 1 mM salicylic acid, once with 0.1 mm jasmonic acid (JA), once with 1 mM ACC (1-aminocyclopropane-1-carboxylic acid, a precursor of the plant hormone ethylene) or wounding. Leaf samples were harvested from induced leaves after 24 hours (1 mM SA, 0.1 mM JA, 1 mM ACC and wounding) and after 5 days (5 mM SA). Control samples were taken at 24 hours after induction in non-induced plants.\nTotal RNA was extracted from 10 g leaf material using a hot phenol method and purified using the Qiagen RNA buffer set and tip-100 columns (Qiagen GmbH, Germany). Contaminating DNA was degraded using a Dnase I (Gibco BRL) treatment.\ncDNA was prepared using 1 μg total RNA, 1 μl oligo(dT)12-18 primers (500 μg/ml, Gibco BRL) and 200 units of Superscript II RT RNAse H reverse transcriptase (Gibco BRL) as described by the manufacturer.\nTranscript levels of ms59 were determined using the competitive RT-PCR technology.\nPCR MIMIC dilutions were made in a range of […] to 0.01 ag/μl in H2O containing 0.2 μg/μl glycogen as a carrier.\nThe cDNA samples were analysed in a competitive RT-PCR. Therefore 2 µl of the samples was combined in a 0.5 ml tube with 1 μl diluted PCR MIMIC (amounts; 0.1 pg, 10 fg, 1.0 fg, 0.1 fg, 10 ag and 1.0 ag). Amplification of cDNA and MIMIC was performed using 10 μM of the primers FR-MS59-47 and FR-MS59-77, 0.5 μl 20 mM dNTP's, 1×PCR buffer, MgCl and 2.5 units recombinant Taq DNA polymerase (Gibco BRL) and was allowed to proceed for 35 cycles, 1′ 95° C., 1′ 55° C., 2′ 72° C. PCR products were separated on a 2% agarose gel and visualized by staining with ethidium bromide and a UV illuminator.", "note": "Where two headings read alike, the source gives them in different places."}
{"molecule": "NC1(C(=O)O)CC1", "note": "[ACC, 1-aminocyclopropane-1-carboxylic acid]", "values": [{"measurement": "fold induction at 1000 µM", "setting": "24 h", "result": 10}]}
{"molecule": "CC/C=C\\C[C@H]1C(=O)CC[C@@H]1CC(=O)O", "note": "[jasmonic acid]", "values": [{"measurement": "fold induction at 100 µM", "setting": "24 h", "result": 10}]}
{"molecule": "O=C(O)c1ccccc1O", "note": "[salicylic acid]", "values": [{"measurement": "fold induction at 5000 µM", "setting": "120 h, 5 mM, leaves sprayed 5 times, harvested after 5 days", "result": 1000}, {"measurement": "fold induction at 1000 µM", "setting": "1 mM, leaves sprayed once, harvested after 24 hours", "result": 1}]}
